We go through 42 compounds from patent US20100087649A1, “QUINOLINONE DERIVATIVES” (priority 2006, published 2010).

In data set [1] the test system is wild-type HIV-IIIB strain. Put plainly: Antiviral analysis EGFP: anti-HIV activity in MT4 LTR-EGFP cells. The class given is cell-based, HIV-1. The note with it: fluorescence of HIV-infected cells reduced by 50%, three days after infection. The method, then:
The compounds of the present invention were tested for anti-viral activity in a cellular assay, which was performed according to the following procedure.
The human T-cell line MT4 is engineered with Green Fluorescent Protein (GFP) and an HIV-specific promoter, HIV-1 long terminal repeat (LTR). This cell line is designated MT4 LTR-EGFP, and can be used for the in vitro evaluation of anti-HIV activity of investigational compounds. In HIV-1 infected cells, the Tat protein is produced which upregulates the LTR promotor and finally leads to stimulation of the GFP reporter production, allowing measuring ongoing HIV-infection fluorometrically.
(§1) Effective concentration values such as 50% effective concentration (EC50) can be determined and are usually expressed in μM. An EC50 value is defined as the concentration of test compound that reduces the fluorescence of HIV-infected cells by 50%. The 50% cytotoxic concentration (CC50 in μM) is defined as the concentration of test compound that reduces fluorescence of the mock-infected cells by 50%. The ratio of CC50 to EC50 is defined as the selectivity index (SI) and is an indication of the selectivity of the anti-HIV activity of the inhibitor. The ultimate monitoring of HIV-1 infection and cytotoxicity is done using a scanning microscope. Image analysis allows very sensitive detection of viral infection. Measurements are done before cell necrosis, which usually takes place about five days after infection, in particular measurements are performed three days after infection.
The following Table 5 lists EC50 values, expressed in micromole/liter, against wild-type HIV-IIIB strain, for a selected number of compounds of the invention.

In a further data set the test system is MT4 CMV-EGFP cells. The data set can be described thus: Cytotoxicity in mock-infected MT4 CMV-EGFP cells. The class given is cell-based, human. The note with it: fluorescence reduced by 50%.
Excerpt: Analogously, MT4 cells are engineered with GFP and the constitutional cytomegalovirus (CMV) promotor. This cell line is designated MT4 CMV-EGFP, and can be used for the in vitro evaluation of cytotoxicity of investigational compounds. In this cell line, GFP levels are comparably to those of infected MT4 LTR-EGFP cells. Cytotoxic investigational compounds reduce GFP levels of mock-infected MT4 CMV-EGFP cells.
as §1

Where only a bound is given, the exact number is not on record here.

On to `CNc1c(C#N)c(=O)n(-c2ccc(C)c(C#N)c2)c2ccccc12` [compound 165], for which a half-maximal response in data set [1] (EC50) required 7.94 µM. In the data set on MT4 CMV-EGFP cells, the CC50 (as a rule, the concentration giving 50% cytotoxicity) was over 100 µM.
The corresponding values for `CC(=O)Nc1cccc(-c2ccc3cc(C#N)c(=O)n(-c4ccc(C)c(C#N)c4)c3c2)c1` [compound 155] are 11 µM and over 100 µM.
Turning to `N#Cc1cc2ccc(OCCCN3CCOCC3)cc2n(-c2ccc([N+](=O)[O-])cc2)c1=O` [compound 56], in data set [1], the EC50 (usually the concentration giving half of the maximal effect) came out at 1.4 µM. This compound also had a CC50 with MT4 CMV-EGFP cells of over 32 µM.
The corresponding values for `N#Cc1cc2cc(OCCN3CCCC3)ccc2n(-c2ccc([N+](=O)[O-])cc2)c1=O` [compound 89] are 1.57 µM and over 32 µM.
The corresponding values for `N#Cc1cc2ccc(-c3cscn3)cc2n(-c2ccc([N+](=O)[O-])cc2)c1=O` [compound 81] are 0.15 µM and over 100 µM.
The corresponding values for `N#Cc1c(N)c2ccc(Cl)cc2n(-c2ccc([N+](=O)[O-])cc2)c1=O` [compound 102] are 0.85 µM and over 32 µM.
Compound `N#Cc1c(N)c2ccc(Cl)cc2n(-c2cccc([N+](=O)[O-])c2)c1=O` [compound 112] registered an EC50 in data set [1] of 5.63 µM. In the data set on MT4 CMV-EGFP cells, this compound gave a CC50 of over 100 µM.
`N#Cc1c(NCC2CCNC2)c2ccccc2n(-c2ccc([N+](=O)[O-])cc2)c1=O` (stereo not shown) [compound 143]: a half-maximal response in data set [1] (EC50) required 11.3 µM. The compound also showed a CC50 in the data set with MT4 CMV-EGFP cells of over 100 µM.
`N#Cc1c(N)c2cc3c(cc2n(-c2ccc(Cl)nc2)c1=O)OCO3` [compound 117]: in data set [1], the EC50 is over 32 µM. In the data set with MT4 CMV-EGFP cells, this compound came in with a CC50 of over 32 µM.
`N#Cc1cc2ccc(OCCCCN)cc2n(-c2ccc([N+](=O)[O-])cc2)c1=O` [compound 60] gave an EC50 in data set [1] of 3.76 µM. The compound further registered a CC50 with MT4 CMV-EGFP cells of over 32 µM.
With `COc1cc2c(N)c(C#N)c(=O)n(-c3ccc([N+](=O)[O-])cc3)c2cc1OC` [compound 109], it took 13.5 µM to reach a half-maximal effect in data set [1] (EC50). The compound also came in with a CC50 in the data set on MT4 CMV-EGFP cells of over 100 µM.
The corresponding values for `N#Cc1c(NCCc2c[nH]cn2)c2ccccc2n(-c2ccc([N+](=O)[O-])cc2)c1=O` [compound 144] are 3.84 µM and over 100 µM.
In data set [1], `N#Cc1cc2ccc(OCCN)cc2n(-c2ccc([N+](=O)[O-])cc2)c1=O` [compound 53] registered an EC50 of 1.14 µM. The compound also came in with a CC50 in the data set with MT4 CMV-EGFP cells of over 100 µM.
The corresponding values for `N#Cc1c(N)c2ccc(Cl)cc2n(-c2ccc(Cl)c(F)c2)c1=O` [compound 105] are over 100 µM and over 100 µM.
The corresponding values for `N#Cc1cc2ccc(NCCCN3CCCC3)cc2n(-c2ccc([N+](=O)[O-])cc2)c1=O` [compound 21] are 0.21 µM and 69.5 µM.
In the case of `N#Cc1cc2ccc(-c3ccoc3)cc2n(-c2ccc([N+](=O)[O-])cc2)c1=O` [compound 41], in data set [1], the midpoint of the response, the EC50, lay at 0.28 µM. The same compound registered a CC50 in the data set on MT4 CMV-EGFP cells of 38.1 µM.
Consider `CN(C)CCCNc1ccc2cc(C#N)c(=O)n(-c3ccc([N+](=O)[O-])cc3)c2c1` [compound 20], for which the EC50 in data set [1] is 0.3 µM. The compound further had a CC50 in the data set with MT4 CMV-EGFP cells of 49 µM.
Taken in the same sequence, the figures for `CC(=O)NCc1cccc(-c2ccc3cc(C#N)c(=O)n(-c4ccc(C)c(C#N)c4)c3c2)c1` [compound 151] were 2.22 µM and over 100 µM.
Taken in the same sequence, the figures for `Cc1ccc(-n2c(=O)c(C#N)cc3ccc(-c4cc[nH]n4)cc32)cc1C#N` [compound 153] were 0.53 µM and over 100 µM.
Taken in the same sequence, the figures for `CNCCNc1ccc2cc(C#N)c(=O)n(-c3ccc([N+](=O)[O-])cc3)c2c1` [compound 15] were 1.37 µM and over 32 µM.
Consider `N#Cc1cc2ccc(-c3cccc(N)c3)cc2n(-c2ccc([N+](=O)[O-])cc2)c1=O` [compound 37], for which the half-maximal effective concentration (EC50) in data set [1] came out at 0.42 µM. Further, the CC50 in the data set with MT4 CMV-EGFP cells was over 100 µM.
On to `N#Cc1cc2cc3c(cc2n(-c2ccc([N+](=O)[O-])cc2)c1=O)OCO3` [compound 6], for which, in data set [1], the response was half-maximal at 1.12 µM (EC50). Besides, the CC50 with MT4 CMV-EGFP cells was over 100 µM.
Taken in the same sequence, the figures for `N#Cc1cc2ccc(NCCN3CCOCC3)cc2n(-c2ccc([N+](=O)[O-])cc2)c1=O` [compound 14] were 4.08 µM and over 32 µM.
Taken in the same sequence, the figures for `CN(C)CCOc1ccc2cc(C#N)c(=O)n(-c3ccc([N+](=O)[O-])cc3)c2c1` [compound 62] were 4.29 µM and over 32 µM.
Take `CN(C)CCNc1c(C#N)c(=O)n(-c2ccc([N+](=O)[O-])cc2)c2ccccc12` [compound 142]: in data set [1], it took 3.28 µM to reach a half-maximal effect (EC50). Further, in the data set with MT4 CMV-EGFP cells, the CC50 stood at 54.7 µM.
Taken in the same sequence, the figures for `Cc1ccc(-n2c(=O)c(C#N)cc3ccc(Cl)cc32)cc1C#N` [compound 161] were 6.1 µM and over 100 µM.
The corresponding values for `N#Cc1cc2ccc(OCCO)cc2n(-c2ccc([N+](=O)[O-])cc2)c1=O` [compound 75] are 3.49 µM and over 32 µM.
Taken in the same sequence, the figures for `N#Cc1cc2ccc(OCCCN3CCCC3)cc2n(-c2ccc([N+](=O)[O-])cc2)c1=O` [compound 73] were 0.42 µM and 36.4 µM.
Consider `N#Cc1cc2ccc(NCc3cccnc3)cc2n(-c2ccc([N+](=O)[O-])cc2)c1=O` [compound 23], for which the EC50 in data set [1] is over 32 µM. The same compound showed a CC50 with MT4 CMV-EGFP cells of over 32 µM.
As to `CCN(CC)CCCOc1ccc2cc(C#N)c(=O)n(-c3ccc([N+](=O)[O-])cc3)c2c1` [compound 66], the EC50 in data set [1] is 1.26 µM. Moreover, in the data set on MT4 CMV-EGFP cells, the CC50 was over 32 µM.
As for `N#Cc1cc2ccc(-c3ccc(C(N)=O)cc3)cc2n(-c2ccc([N+](=O)[O-])cc2)c1=O` [compound 35], the EC50 in data set [1] turned out to be 1.71 µM. Besides, the CC50 in the data set with MT4 CMV-EGFP cells came out at 22.6 µM.
For the compound `Cc1ccc(-n2c(=O)c(C#N)c(N)c3ccccc32)cc1C#N` [compound 166], the EC50 in data set [1] was found to be 3.01 µM. The cytotoxic concentration (CC50) in the data set with MT4 CMV-EGFP cells is over 100 µM.
Taken in the same sequence, the figures for `N#Cc1cc2ccc(-c3cncnc3)cc2n(-c2ccc([N+](=O)[O-])cc2)c1=O` [compound 31] were 7.9 µM and over 100 µM.
On to `N#Cc1cc2ccc(-c3cnccn3)cc2n(-c2ccc([N+](=O)[O-])cc2)c1=O` [compound 78], for which a half-maximal effect in data set [1] (EC50) was put at 1.32 µM. This compound also returned a CC50 in the data set with MT4 CMV-EGFP cells of over 100 µM.
`COCCNc1ccc2cc(C#N)c(=O)n(-c3ccc([N+](=O)[O-])cc3)c2c1` [compound 17] yielded a 50% effective concentration (EC50) in data set [1] of over 32 µM. This compound gave a CC50 in the data set on MT4 CMV-EGFP cells of over 32 µM.
The compound `Cc1ccc2c(N)c(C#N)c(=O)n(-c3ccc([N+](=O)[O-])cc3)c2c1` [compound 115] displayed an EC50 in data set [1] of 0.68 µM. This compound showed a CC50 with MT4 CMV-EGFP cells of over 100 µM.
In turn, `Cc1ccc(-n2c(=O)c(C#N)c(N)c3ccc(Cl)cc32)cc1C#N` [compound 162] registered an EC50 in data set [1] of 0.87 µM. In the data set with MT4 CMV-EGFP cells, this compound had a 50% cytotoxic concentration (CC50) of over 100 µM.
Taken in the same sequence, the figures for `N#Cc1cc2ccc(-c3ccccn3)cc2n(-c2ccc([N+](=O)[O-])cc2)c1=O` [compound 82] were 0.54 µM and over 100 µM.
The corresponding values for `N#Cc1cc2ccc(NCCN)cc2n(-c2ccc([N+](=O)[O-])cc2)c1=O` [compound 16] are 1.55 µM and over 32 µM.
Regarding `N#Cc1cc2ccc(-c3ncco3)cc2n(-c2ccc([N+](=O)[O-])cc2)c1=O` [compound 79], the response in data set [1] was half-maximal at 0.12 µM (EC50).
`N#Cc1cc2ccc(-c3cncs3)cc2n(-c2ccc([N+](=O)[O-])cc2)c1=O` [compound 77] came in with an EC50 in data set [1] of 0.34 µM. Moreover, the cytotoxic concentration (CC50) in the data set on MT4 CMV-EGFP cells turned out to be 25.8 µM.
The compound `Cc1ccc(-n2c(=O)c(C#N)cc3ccc(-c4cscn4)cc32)cc1C#N` [compound 160] showed an EC50 in data set [1] of 0.33 µM. That is a sub-micromolar value.
